Measurements reported in US12396459B2, “Synergistically effective herbicide composition comprising pyridate and at least one defined 4-HPPD inhibitor” (BELCHIM CROP PROTECTION NV, priority 2018, dated 2025).

What was measured:
Assay type in all cases: in vivo
[1] = tested on: Geranium dissectum; assay: Examples 6-8 herbicidal effect: GERDI; settings: 7 DAA
[2] = tested on: Setaria verticillata; assay: Examples 6-8 herbicidal effect: SETVE; settings: 7 DAA
[3] = tested on: Chenopodium album; assay: Examples 6-8 herbicidal effect: CHEAL; settings: 7 DAA
[4] = tested on: Echinochloa crus-galli; assay: Examples 6-8 herbicidal effect: ECHCG; settings: 7 DAA
[5] = tested on: Matricaria chamomilla; assay: Examples 6-8 herbicidal effect: MATCH; settings: 7 DAA
[6] = tested on: Veronica persica; assay: Examples 6-8 herbicidal effect: VERPE; settings: 7 DAA
[7] = tested on: Digitaria sanguinalis; assay: Examples 6-8 herbicidal effect: DIGSA; settings: 7 DAA
[8] = tested on: Solanum nigrum; assay: Examples 6-8 herbicidal effect: SOLNI; settings: 7 DAA
[9] = tested on: Poa annua; assay: Examples 6-8 herbicidal effect: POAAN; settings: 7 DAA
[10] = tested on: Lamium amplexicaule; assay: Example 6 herbicidal effect: LAMAM; settings: 7 DAA
[11] = tested on: Chenopodium album; assay: Field trial post-emergence in maize: CHEAL; settings: 13-14 DAA, # = 1
Experimental: (§1) Herbicidal activity of herbicide compositions according to the first aspect of the present invention with regard to different types of unwanted vegetation was determined during trials performed on test fields (field trials). Individual compositions comprising pyridate and individual compositions comprising a defined 4-HPPD inhibitor are compared with a herbicide composition according to the invention comprising both pyridate and a defined 4-HPPD inhibitor. The expected activity of the combination of the active compounds pyridate and a defined 4-HPPD inhibitor is calculated according to above mentioned calculation method by Colby, in order to evaluate a synergistic effect between pyridate and a defined 4-HPPD inhibitor.
(§2) Herbicidal activity was determined by applying herbicide compositions on emerged unwanted vegetation on fields where maize was cultivated. Pyridate and a defined 4-HPPD inhibitor were applied as a tank mixture by mixing these active compounds prior to use in a spray tank. The corresponding mixture was in the form of a spray liquor. Besides, spray liquors of individual compositions comprising pyridate and of individual compositions comprising a defined 4-HPPD inhibitor were used. Test plants of unwanted vegetation with a growth stage corresponding to BBCH 10-18 (according to the extended BBCH-scale) were sprayed with the active compound preparations such that particular desired amounts of active compounds are applied per unit area. Spray liquor was diluted with water to arrive at an application volume of 50 to 450 L/ha. At a specified number of days after application (DAA), the degree of damage to the unwanted vegetation is rated in % of plants of unwanted vegetation that were killed, which was assessed by visually controlling the plants.

[12] = tested on: Bassia scoparia; assay: Field trial post-emergence in maize: KCHSC; settings: 13-14 DAA; # = 2; g a.c./ha: PYR 450, TEM 38, PYR + TEM 450 + 38
Experimental: as §1
(§3) Herbicidal activity was determined by applying herbicide compositions on emerged unwanted vegetation on fields where maize was cultivated. Pyridate and a defined 4-HPPD inhibitor were applied as a tank mixture by mixing these active compounds prior to use in a spray tank. The corresponding mixture was in the form of a spray liquor. […] At a specified number of days after application (DAA), the degree of damage to the unwanted vegetation is rated in % of plants of unwanted vegetation that were killed, which was assessed by visually controlling the plants.

[13] = tested on: Brassica rapa Canola cultivars; assay: Field trial post-emergence in maize: BRSRC; settings: 13-14 DAA; # = 1; g a.c./ha: PYR 450, TOP 12.4, PYR + TOP 450 + 12.4
Experimental: as §1, §2

[14] = tested on: Sinapis arvensis; assay: Field trial post-emergence in maize: SINAR; settings: 13-14 DAA; # = 1; g a.c./ha: PYR 450, TOP 12.4, PYR + TOP 450 + 12.4
Experimental: as §1, §3

[15] = tested on: Amaranthus retroflexus; assay: Field trial post-emergence in maize: AMARE; settings: 13-14 DAA; # = 1; g a.c./ha: PYR 450, TOP 12.4, PYR + TOP 450 + 12.4
Experimental: as §1, §2

[16] = g a.c./ha: PYR 300, SCT 300, PYR + SCT 300 + 300
[17] = g a.c./ha: PYR 450, SCT 450, PYR + SCT 300 + 450
[18] = g a.c./ha: SMO 800, PYR + NIC 300 + 30
[19] = g a.c./ha: PYR 10, TEM 22, PYR + TEM 10 + 100
[20] = g a.c./ha: PYR 300, TEM 100, PYR + TEM 300 + 100
[21] = g a.c./ha: PYR 900, TEM 44, PYR + TEM 900 + 44

SMILES: COc1cc(OC)nc(NC(=O)NS(=O)(=O)c2ncccc2C(=O)N(C)C)n1 [NIC, nicosulfuron]
- herbicidal effect (h.e.) ([1]; NIC 30 g a.c./ha): 33%
- herbicidal effect (h.e.) ([2]; NIC 30 g a.c./ha): 37%
- herbicidal effect (h.e.) ([3]; NIC 30 g a.c./ha): 24%
- herbicidal effect (h.e.) ([4]; NIC 30 g a.c./ha): 38%
- herbicidal effect (h.e.) ([5]; NIC 30 g a.c./ha): 6%
- herbicidal effect (h.e.) ([6]; NIC 30 g a.c./ha): 7%
- herbicidal effect (h.e.) ([7]; NIC 30 g a.c./ha): 32%
- herbicidal effect (h.e.) ([8]; NIC 30 g a.c./ha): 17%
- herbicidal effect (h.e.) ([9]; NIC 30 g a.c./ha): 75%

SMILES: CS(=O)(=O)c1ccc(C(=O)C2C(=O)CCCC2=O)c(Cl)c1 [SCT, 2-[2-Chloro-4-(methylsulfonyl)benzoyl]cyclohexane-1,3-dione]
- herbicidal effect (h.e.) [1, 16]: 28%
- herbicidal effect (h.e.) [1, 17]: 50%
- herbicidal effect (h.e.) [2, 16]: 2%
- herbicidal effect (h.e.) [2, 17]: 2%
- herbicidal effect (h.e.) [3, 16]: 30%
- herbicidal effect (h.e.) [3, 17]: 45%
- herbicidal effect (h.e.) [4, 16]: 58%
- herbicidal effect (h.e.) [4, 17]: 60%
- herbicidal effect (h.e.) [5, 16]: 28%
- herbicidal effect (h.e.) [5, 17]: 25%
- herbicidal effect (h.e.) [6, 16]: 83%
- herbicidal effect (h.e.) [6, 17]: 80%
- herbicidal effect (h.e.) [7, 16]: 60%
- herbicidal effect (h.e.) [7, 17]: 53%
- herbicidal effect (h.e.) [8, 16]: 53%
- herbicidal effect (h.e.) [8, 17]: 53%
- herbicidal effect (h.e.) [9, 16]: 3%
- herbicidal effect (h.e.) [9, 17]: 3%

SMILES: CCc1cccc(C)c1N(C(=O)CCl)[C@@H](C)COC [SMO, S-metolachlor]
- herbicidal effect (h.e.) [1, 18]: 0%
- herbicidal effect (h.e.) [2, 18]: 0%
- herbicidal effect (h.e.) [3, 18]: 1%
- herbicidal effect (h.e.) [4, 18]: 0%
- herbicidal effect (h.e.) [5, 18]: 0%
- herbicidal effect (h.e.) [6, 18]: 5%
- herbicidal effect (h.e.) [7, 18]: 0%
- herbicidal effect (h.e.) [8, 18]: 3%
- herbicidal effect (h.e.) [9, 18]: 0%

SMILES: CS(=O)(=O)c1ccc(C(=O)C2C(=O)CCCC2=O)c(Cl)c1COCC(F)(F)F [TEM, 2-[2-chloro-4-methylsulfonyl-3-(2,2,2-trifluoroethoxymethyl)benzoyl]cyclohexane-1,3-dione]
- herbicidal effect (h.e.) [1, 19]: 8%
- herbicidal effect (h.e.) [1, 20]: 33%
- herbicidal effect (h.e.) [1, 21]: 20%
- herbicidal effect (h.e.) [10, 19]: 25%
- herbicidal effect (h.e.) [10, 20]: 40%
- herbicidal effect (h.e.) [10, 21]: 100%
- herbicidal effect (h.e.) [2, 19]: 0%
- herbicidal effect (h.e.) [2, 20]: 100%
- herbicidal effect (h.e.) [2, 21]: 18%
- herbicidal effect (h.e.) ([11]; g a.c./ha: PYR 450, TEM 38, PYR + TEM 450 + 38): 0%
- herbicidal effect (h.e.) [3, 19]: 68%
- herbicidal effect (h.e.) [3, 20]: 78%
- herbicidal effect (h.e.) [3, 21]: 96%
- herbicidal effect (h.e.) [4, 19]: 83%
- herbicidal effect (h.e.) [4, 20]: 85%
- herbicidal effect (h.e.) [4, 21]: 95%
- herbicidal effect (h.e.) [12]: 40%
- herbicidal effect (h.e.) [5, 19]: 15%
- herbicidal effect (h.e.) [5, 20]: 100%
- herbicidal effect (h.e.) [5, 21]: 70%
- herbicidal effect (h.e.) [6, 19]: 8%
- herbicidal effect (h.e.) [6, 20]: 53%
- herbicidal effect (h.e.) [6, 21]: 53%
- herbicidal effect (h.e.) [7, 19]: 59%
- herbicidal effect (h.e.) [7, 20]: 99%
- herbicidal effect (h.e.) [7, 21]: 95%
- herbicidal effect (h.e.) [8, 19]: 40%
- herbicidal effect (h.e.) [8, 20]: 80%
- herbicidal effect (h.e.) [8, 21]: 85%
- herbicidal effect (h.e.) [9, 19]: 10%
- herbicidal effect (h.e.) [9, 20]: 32%
- herbicidal effect (h.e.) [9, 21]: 13%

SMILES: Cc1c(C(=O)c2c[nH]n(C)c2=O)ccc(S(C)(=O)=O)c1C1=NOCC1 [TOP, 4-[3-(4,5-dihydro-1,2-oxazol-3-yl)-2-methyl-4-methylsulfonylbenzoyl]-2-methyl-1H-pyrazol-3-one]
- herbicidal effect (h.e.) [13]: 50%
- herbicidal effect (h.e.) [14]: 50%
- herbicidal effect (h.e.) ([11]; g a.c./ha: PYR 450, TOP 12.4, PYR + TOP 450 + 12.4): 1%
- herbicidal effect (h.e.) [15]: 18%
